Results taken from patent publication US9562085B2, “Antimicrobial peptide” (priority 2013, dated 2017).

These substances were tested on MRSA LUH14616 (assay: In vitro killing assay on mid-log phase bacteria, MRSA LUH14616). Settings: MRSA LUH14616 in PBS, 1 hour at 37° C.; 90% Inhibitory Concentration, linear regression.
Type: cell-based, Staphylococcus aureus
Source text: The clinical isolate of methicillin-resistant Staphylococcus aureus (MRSA), LUH14616 was kindly provided by Dr. S. Croes, Maastricht University Medical Center, Maastricht, Netherlands (see S.B.M.C. Croes, Microbiol. 2009; 9:229. doi: 10.1186/1471-2180-9-229) and that of mupirocine-resistant MRSA LUH15051 was a gift from Dr. M.E.O.C. Heck (Laboratory for Infectious Diseases and Screening, National Institute for Public Health and Environment, RIVM, Bilthoven, Netherlands).
Bacteria were stored at -80° C. until use. Inoculi of mid-log phase bacteria were prepared by incubating isolated MRSA colonies from blood agar plates in Tryptic Soy Broth (TSB) medium (Becton Dickinson, Le Pont de Clax, France) for 2.5 hours and then diluted to the concentration needed.
For the in vitro killing assay on mid-log phase bacteria, MRSA LUH14616 and MRSA LUH15051 were resuspended to a concentration of 1×10^6 bacteria/ml in PBS. Subsequently, 200 μl was added to a concentration range of peptides LL-37, P60.4Ac (OP-145) and P10 that were lyophilized in advance. Subsequently, the bacteria-peptide mixture was incubated for 1 hour at 37° C. To establish the killing capacity of these peptides, the suspensions were serially diluted and plated onto DST agar plates to measure viable CFU counts. IC90, IC99 and IC99.9 values are calculated by linear regression analysis.

Substance | IC90 [µM]
Ac-IGKEFKRIVERIKRFLRELVRPLR-NH2 (N-terminus and C-terminus assumed) [Peptide P60.4Ac, reference compound] | 0.75

What follows are substances tested on S. aureus JAR (assay: not given). Settings: JAR, 2 h.
Type: cell-based
Experimental: S. aureus JAR is described in Campoccia et al. (Int. J. Artif. Organs, 2008 September; 31(9):841-7).
For the in vitro killing assay with P10 variants, S. aureus JAR ([…] CFU/ml) were incubated for 2 hours at 37° C. with various concentrations of the peptides in PBS or in PBS/human plasma (1/1, v/v). […] The LC99.9 is the average value of two independent experiments.

Substance | LC99.9 (μM) (50% plasma) [µM] | LC99.9 (μM) (PBS) [µM]
Ac-LAREYKKIVEKLKRWLRQLLRTLR-NH2 [Peptide 1302-46, JLAREYKKIVEKLKRWLRQLLRTLRB] | 102.4 | 1.6
Ac-LAREYKKIVEKLKRWLRQVIRTLR-NH2 [Peptide 1302-47, JLAREYKKIVEKLKRWLRQVIRTLRB] | 76.8 | 1.6
Ac-LAREYKKIVEKLKRWLRQVL-NH2 [Peptide 1302-60, JLAREYKKIVEKLKRWLRQVLB] | 102.4 | 1.6
Ac-LAREYKKIVEKLKRWLRQVLHTLR-NH2 [Peptide 1302-51, JLAREYKKIVEKLKRWLRQVLHTLRB] | 102.4 | 1.6
Ac-LAREYKKIVEKLKRWLRQVLKTLR-NH2 [Peptide 1302-50, JLAREYKKIVEKLKRWLRQVLKTLRB] | 51.2 | 0.8
Ac-LAREYKKIVEKLKRWLRQVLRALR-NH2 [Peptide 1302-54, JLAREYKKIVEKLKRWLRQVLRALRB] | 51.2 | 0.8
Ac-LAREYKKIVEKLKRWLRQVLRNLR-NH2 [Peptide 1302-53, JLAREYKKIVEKLKRWLRQVLRNLRB] | 51.2 | 1.6
Ac-LAREYKKIVEKLKRWLRQVLRQLR-NH2 [Peptide 1302-52, JLAREYKKIVEKLKRWLRQVLRQLRB] | 76.8 | 1.6
Ac-LAREYKKIVEKLKRWLRQVLRT-NH2 [Peptide 1302-57, JLAREYKKIVEKLKRWLRQVLRTB] | 51.2 | 1.6
Ac-LAREYKKIVEKLKRWLRQVLRTLH-NH2 [Peptide 1302-55, JLAREYKKIVEKLKRWLRQVLRTLHB] | 102.4 | 1.2
Ac-LAREYKKIVEKLKRWLRQVVRTLR-NH2 [Peptide 1302-48, JLAREYKKIVEKLKRWLRQVVRTLRB] | 76.8 | 1.2
Ac-LAREYKKIVEKLKRWLRSVLRTLR-NH2 [Peptide 1302-44, JLAREYKKIVEKLKRWLRSVLRTLRB] | 76.8 | 1.6
Ac-LAREYKKIVEKLKRWLRTVLRTLR-NH2 [Peptide 1302-45, JLAREYKKIVEKLKRWLRTVLRTLRB] | 76.8 | 1.6
Ac-LAREYKKIVEKVKRWLRQVLRTLR-NH2 [Peptide 1302-34, JLAREYKKIVEKVKRWLRQVLRTLRB] | 102.4 | 3.2
Ac-LAREYKKIVERLKRWLRQVLRTLR-NH2 [Peptide 1302-31, JLAREYKKIVERLKRWLRQVLRTLRB] | 102.4 | 3.2
Ac-LAREYKKIVPKLKRWLRQVPRTLR-NH2 [Peptide 1302-15, JLAREYKKIVPKLKRWLRQVPRTLRB] | 76.8 | >3.2
Ac-LAREYKKPVEKLKRWLPQVLRTLR-NH2 [Peptide 1302-16, JLAREYKKPVEKLKRWLPQVLRTLRB] | 102.4 | >3.2
Ac-LAREYKPIVEKLKRWPRQVLRTLR-NH2 [Peptide 1302-13, JLAREYKPIVEKLKRWPRQVLRTLRB] | >102.4 | >3.2
Ac-LAREYKRIVEKLKRWLRQVLRTLR-NH2 [Peptide 1302-29, JLAREYKRIVEKLKRWLRQVLRTLRB] | 102.4 | 1.6
Ac-LAREYPKIVEKLKRWLRPVLRTLR-NH2 [Peptide 1302-14, JLAREYPKIVEKLKRWLRPVLRTLRB] | 102.4 | 3.2
Ac-LAREYRKIVEKLKRWLRQVLRTLR-NH2 [Peptide 1302-27, JLAREYRKIVEKLKRWLRQVLRTLRB] | 76.8 | 0.8
Ac-LARQYKKIVEKLKRWLRQVLRTLR-NH2 [Peptide 1302-25, JLARQYKKIVEKLKRWLRQVLRTLRB] | 51.2 | 1.2
Ac-LLREYKKIVEKLKRWLRQVLRTLR-NH2 [Peptide 1302-20, JLLREYKKIVEKLKRWLRQVLRTLRB] | 102.4 | 1.6
Ac-LQREYKKIVEKLKRWLRQVLRTLR-NH2 [Peptide 1302-22, JLQREYKKIVEKLKRWLRQVLRTLRB] | 76.8 | 1.6
Ac-LVREYKKIVEKLKRWLRQVLRTLR-NH2 [Peptide 1302-21, JLVREYKKIVEKLKRWLRQVLRTLRB] | 76.8 | 1.2
Ac-REYKKIVEKLKRWLRQVLRT-NH2 [Peptide 1302-58, JREYKKIVEKLKRWLRQVLRTB] | 76.8 | 1.6
Ac-REYKKIVEKLKRWLRQVLRTLR-NH2 [Peptide 1302-56, JREYKKIVEKLKRWLRQVLRTLRB] | 51.2 | 1.6
Ac-VAREYKKIVEKLKRWLRQVLRTLR-NH2 [Peptide 1302-18, JVAREYKKIVEKLKRWLRQVLRTLRB] | 76.8 | 1.6
Ac-YKKIVEKLKRWLRQVL-NH2 [Peptide 1302-62, JYKKIVEKLKRWLRQVLB] | 76.8 | 1.6
Ac-YKKIVEKLKRWLRQVLRTLR-NH2 [Peptide 1302-59, JYKKIVEKLKRWLRQVLRTLRB] | 51.2 | 1.6

Same assay, conditions: S. aureus JAR, 2 hours at 37° C. in PBS/human plasma (1/1, v/v); concentration killing 99.9% of the bacteria; average of two experiments

Substance | LC99.9 (μM) (50% plasma) [µM]
Ac-LAREYKKIVEKLKRWLRQVARTLR-NH2 [Peptide 1302-49, JLAREYKKIVEKLKRWLRQVARTLRB] | 51.2

Same assay, conditions: S. aureus JAR, 2 hours at 37° C. in PBS; concentration killing 99.9% of the bacteria; average of two experiments

Substance | LC99.9 (μM) (PBS) [µM]
Ac-LAREYKKIVEKLKRWLRQVARTLR-NH2 [Peptide 1302-49, JLAREYKKIVEKLKRWLRQVARTLRB] | 1.6
